Experiment [1] deals with MTAP− and MTAP+ cell lines (isogenic pairs). As to the kind of experiment: Cell viability IC50 measurement (Cell Titer-Glo). The class given is cell-based. How it is done: Applicants tested the ability of these inhibitors to selectively impair viability of parental MTAP− cell lines compared to isogenic lines expressing MTAP, as well as parental MTAP+ cell lines compared to isogenic CRISPR-mediated MTAP knockout lines (FIG. 17).
Cell plating densities were determined by evaluating the number of cells required to achieve 70% confluency after 12 days in culture. Cells were seeded in 100 μL of media in 96-well plates (excluding wells in the first or last row or column) using the following densities in cells per well: LU99 at 360, H647 at 100, SF-172 at 35, SU8686 at 250, MIAPACA2 at 135, H838 at 73, H2126 at 1042, HCC44 at 62, KP2 at 292, H661 at 166, and H2030 at 250. Isogenic cell line pairs were seeded at the same densities for all experiments.
Drug was administered using the HP D300 digital dispenser (Hewlett-Packard). […] Media and drug were changed every 4 days.
Isogenic cell line pairs were plated and cultured in parallel for the same time period. Luminescence was measured according to the manufacturer's instructions using the EnVision Multilabel Reader (Perkin Elmer). Luminescence data from each well was normalized to luminescence from wells containing untreated cells on that same plate. IC50 was calculated by non-linear regression using the ‘log(inhibitor) vs. response (three parameters) analysis in GraphPad Prism 6.
Background: ATP-based viability assays read luminescence as a measure of living cells.

A further experiment addresses PRMT5 (Homo sapiens, UniProt O14744). Particulars: cited from earlier work.

These results are taken from US20180271891A1, “SELECTIVE TREATMENT OF PRMT5 DEPENDENT CANCER” (THE BROAD INSTITUTE INC., priority 2015, published 2018).

Sequence of PRMT5 (O14744 whole entry): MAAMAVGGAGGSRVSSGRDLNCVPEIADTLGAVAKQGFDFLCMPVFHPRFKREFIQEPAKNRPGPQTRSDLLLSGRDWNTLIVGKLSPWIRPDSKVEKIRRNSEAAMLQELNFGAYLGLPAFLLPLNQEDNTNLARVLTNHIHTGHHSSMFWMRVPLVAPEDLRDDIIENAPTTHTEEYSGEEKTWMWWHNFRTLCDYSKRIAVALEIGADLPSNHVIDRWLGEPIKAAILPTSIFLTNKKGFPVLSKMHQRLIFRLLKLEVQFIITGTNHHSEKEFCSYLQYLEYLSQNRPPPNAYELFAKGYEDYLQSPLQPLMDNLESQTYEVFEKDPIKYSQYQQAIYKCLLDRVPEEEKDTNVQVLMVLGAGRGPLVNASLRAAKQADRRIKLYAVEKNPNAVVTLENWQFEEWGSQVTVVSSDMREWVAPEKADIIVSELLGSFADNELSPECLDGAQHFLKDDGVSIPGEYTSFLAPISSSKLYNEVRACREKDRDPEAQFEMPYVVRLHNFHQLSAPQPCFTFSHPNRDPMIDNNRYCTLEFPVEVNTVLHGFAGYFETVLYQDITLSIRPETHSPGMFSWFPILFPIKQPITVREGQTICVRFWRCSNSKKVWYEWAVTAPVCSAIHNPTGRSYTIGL
Sequence of PRMT5 (Q9BQA1 whole entry partner): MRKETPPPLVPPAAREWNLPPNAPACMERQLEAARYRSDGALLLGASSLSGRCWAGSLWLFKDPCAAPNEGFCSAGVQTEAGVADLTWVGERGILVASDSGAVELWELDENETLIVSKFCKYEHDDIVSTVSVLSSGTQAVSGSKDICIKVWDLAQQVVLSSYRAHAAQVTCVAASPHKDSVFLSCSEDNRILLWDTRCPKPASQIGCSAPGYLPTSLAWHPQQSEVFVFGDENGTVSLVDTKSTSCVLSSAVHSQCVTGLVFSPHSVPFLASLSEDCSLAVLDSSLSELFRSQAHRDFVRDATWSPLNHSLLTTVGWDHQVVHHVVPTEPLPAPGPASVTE

Consider `O=C(NC[C@H](O)CN1CCc2ccccc2C1)c1cc(NC2COC2)ncn1` [EPZ015666], for which the “differential sensitivity between isogenic MTAP− and MTAP+ cells” value in experiment [1] (SF-172 isogenic pair) is listed as “absent altogether”. In addition, in experiment [1] (parental MTAP+ vs MTAP− cell lines), the “difference in mean IC50 values between MTAP+ and MTAP− cell lines” value is given as “did not observe significant differences”. Also, on PRMT5, the “mode of inhibition of PRMT5” value is “peptide-competitive and SAM-cooperative”.
